Measurements as given in patent publication US7655650B2, “Oxadiazine derivatives” (Syngenta Corporation, priority 1992, dated 2010).

Legend:
Type in all cases: in vivo
[1] = test system: Nephotettix cincticeps; assay: Example B10: Activity against Nephotettix cincticeps; conditions: 504 h, 400 ppm spray on rice plants, larvae in the 2nd and 3rd stages, evaluated after 21 days, read-out: percentage reduction in population (% activity)
Method: (§1) Rice plants are sprayed with an aqueous emulsion spray mixture comprising 400 ppm of active ingredient. After the spray coating has dried on, the plants are populated with larvae in the 2nd and 3rd stages. The test is evaluated after 21 days. The percentage reduction in population (% activity) is determined by comparing the number of surviving leaf hoppers on the treated and untreated, plants.

[2] = test system: Myzus persicae; assay: Example B8: Activity against Myzus persicae; conditions: 400 ppm spray on infected pea seedlings, 20°, evaluated after 3 and 6 days, read-out: percentage reduction in population (% activity)
Method: (§2) Pea seedlings are infected with Myzus persicae, subsequently sprayed with a spray mixture comprising 400 ppm of active ingredient and then incubated at 20°. The test is evaluated after 3 and 6 days. The percentage reduction in population (% activity) is determined by comparing the number of dead aphids on the treated and untreated plants.

[3] = test system: Heliothis virescens; assay: Example B6: Activity against Heliothis virescens; conditions: 144 h, 400 ppm spray on young soyabean plants, 10 caterpillars in the first stage, evaluated after 6 days, read-out: percentage reduction in population and in feeding damage (% activity)
Method: Young soyabean plants are sprayed with an aqueous emulsion spray mixture comprising 400 ppm of active ingredient. After the spray coating has dried on, the plants are populated with 10 Heliothis virescens caterpillars in the first stage and transferred to a plastic container. The test is evaluated after 6 days. The percentage reduction in population and in feeding damage (% activity) are determined by comparing the number of dead caterpillars and the feeding damage between the treated and untreated plants.

[4] = test system: Aphis craccivora; assay: Example B2: Activity against Aphis craccivora; conditions: 400 ppm spray on infected pea seedlings, 20° C., evaluated after 3 and 6 days, read-out: percentage reduction in population (% activity)
Method: as §2, with “Aphis craccivora,” for “Myzus persicae,”, “20° C.” for “20°.”

[5] = test system: Ctenocephalides felis; assay: Example B4: Activity against Ctenocephalides felis (systemic); conditions: 5 ppm in blood at 37°, fed through membrane, 20 adult fleas, evaluated after 24 and 48 hours, read-out: percentage reduction in population (% activity)
Method: Twenty adult fleas of the species Ctenocephalides felis are placed into a flat, round cage, both sides of which are covered with gauze. A container whose bottom is sealed with a Parafilm membrane is placed onto the cage. In the container there is blood which comprises 5 ppm of active ingredient and which is constantly heated at 37°. The fleas take up blood through the membrane. The test is evaluated 24 and 48 hours after setting up the experiment The percentage reduction in population (% activity) is determined by comparing the number of dead fleas when using treated and untreated blood. 24 hours after the treatment, the blood is replaced by fresh blood which has also been treated.

[6] = test system: Diabrotica balteata; assay: Example B5: Activity against Diabrotica balteata; conditions: 144 h, 400 ppm spray on maize seedlings, 10 larvae in the second stage, evaluated after 6 days, read-out: percentage reduction in population (% activity)
Method: Maize seedlings are sprayed with an aqueous emulsion spray mixture comprising 400 ppm of active ingredient. After the spray coating has dried on, the seedlings are populated with 10 Diabrotica balteata larvae in the second stage and transferred to a plastic container. The test is evaluated after 6 days. The percentage reduction in population (% activity) is determined by comparing the number of dead larvae between the treated and untreated plants.

[7] = test system: Nilaparvata lugens; assay: Example B12: Activity against Nilaparvata lugens; conditions: 504 h, 400 ppm spray on rice plants, larvae in the 2nd and 3rd stages, evaluated after 21 days, read-out: percentage reduction in population (% activity)
Method: as §1, with “populated with plant hopper larvae in” for “populated with larvae in”, “of surviving plant hoppers on” for “of surviving leaf hoppers on”, “treated and untreated plants.” for “treated and untreated, plants.”

[8] = test system: Anthonomus grandis; assay: Example B1: Activity against Anthonomus grandis; conditions: 72 h, 400 ppm spray on young cotton plants, 10 adult beetles, evaluated after 3 days, read-out: percentage reduction in population and percentage reduction in feeding damage (% activity)
Method: Young cotton plants are sprayed with an aqueous emulsion spray mixture comprising 400 ppm of active ingredient. After the spray coating has dried on, the plants are populated with 10 adult Anthonomus grandis and placed into a plastic container. 3 days later, the test is evaluated. The percentage reduction in population and the percentage reduction in feeding damage (% activity) are determined by comparing the number of dead beetles and the feeding damage between the treated and the untreated plants.

CN1COCN(Cc2ccc(Cl)nc2)/C1=N/[N+](=O)[O-] [Compound No. 1.2, 5-(2-Chloropyrid-5-ylmethyl)-3-methyl-4-nitroiminoperhydro-1,3,5-oxadiazine]
> 80%: inhibition at 400 ppm [1] | inhibition at 400 ppm [2] | inhibition at 400 ppm [3] | inhibition at 400 ppm [4] | inhibition at 5 ppm [5] | inhibition at 400 ppm [6] | inhibition at 400 ppm [7] | inhibition at 400 ppm [8]
